# According to US20230322724A1, “HETEROCYCLIC COMPOUNDS AS CBP/EP300 BROMODOMAIN INHIBITORS” (AURIGENE ONCOLOGY LIMITED, priority 2020, published 2023):
# Like-named read-outs stand apart in the source and are kept apart here.
# How the values were obtained:
# [1] = biological target: T1, recombinant CREBBP bromodomain (Homo sapiens, UniProt Q92793); assay: CBP TR-FRET displacement assay; type: binding; conditions: dose-response, read-out: IC50 (group A, B, C)
# T1 construct: recombinant CREBBP bromodomain obtained from BPS Bioscience, USA; purchased BPS Bioscience, USA
# Experimental: The potency of compounds to inhibit CREBBP enzyme was tested in a TR-FRET displacement assay using recombinant CREBBP bromodomain obtained from BPS Bioscience, USA. The assay buffer was 50 mM HEPES (pH 7.5), 50 mM NaCl, 0.008% Brij 35, 0.01% BSA, 1 mM TCEP. 50 nM of CREBBP & 500 nM of Biotinylated ligand was incubated at room temperature for 30 minutes, the reaction was initiated by adding pre-incubated enzyme ligand mixture to the test compounds. After 60 min incubation, the reaction was stopped by the addition of stop mix containing 1 nM of LANCE Europium-anti-6xHis antibody (Perkin Elmer, USA) and 40 nM of Sure Light Allophycocyanin-Streptavidin (Perkin Elmer, USA). Fluorescence emission of the samples at 665 and 615 nm were measured at an excitation of 340 nm and their ratio was plotted against the compound concentrations to generate dose-response curve. The percent inhibition of the test compounds is calculated using the ratio of enzyme activity controls.
# elected compounds of the present invention were screened in the above-mentioned assay procedures and IC50 values were determined by fitting the dose-response data to sigmoidal curve fitting equation using Graph pad prism software V7.
# [2] = biological target: T2, recombinant BRD4 FL bromodomain (Homo sapiens, UniProt O60885); assay: BRD4 FL TR-FRET displacement assay; type: binding; conditions: for IC50: dose-response, read-out: IC50 (group A, B, C); for inhibition at 10 µM: read-out: % Inhibition (10 μM)
# T2 construct: fused on or other part: 6xHis tag, inferred from detection with Mab ANTI 6HIS-XL665
# Experimental: The potency of compounds to inhibit BRD4 FL enzyme was tested in a TR-FRET displacement assay using recombinant BRD4 FL bromodomain obtained In-house. The assay buffer was 50 mM HEPES (pH 7.5), 50 mM NaCl, 500 μM CHAPS. 10 nM of BRD4 FL & 300 nM of Biotinylated Acetyl histone H4 (Lys 5, 8, 12, 16) (Millipore, USA) was incubated at room temperature for 30 minutes, the reaction was initiated by adding the pre-incubated enzyme ligand mixture to the test compounds. After 30 min incubation, the reaction was stopped by the addition of stop mix containing 1 nM of Europium Streptavidin cryptate (Cisbio, USA) and 5 nM of Mab ANTI 6HIS-XL665 (Cisbio, USA) dilutes in assay buffer containing 2.4M Potassium Fluoride. Fluorescence emission of the samples at 665 and 615 nm were measured at an excitation of 340 nm and their ratio was plotted against the compound concentrations to generate dose-response curve. The percent inhibition of the test compounds is calculated using the ratio of enzyme activity controls.
# Selected compounds of the present invention were screened in the above-mentioned assay procedures and IC50 values were determined by fitting the dose-response data to sigmoidal curve fitting equation using Graph pad prism software V7.
# T1 sequence (Q92793 1085-1192 limits assumed): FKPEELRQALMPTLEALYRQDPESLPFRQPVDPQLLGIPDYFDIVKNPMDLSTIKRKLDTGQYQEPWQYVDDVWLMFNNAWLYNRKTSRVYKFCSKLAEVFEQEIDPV
SMILES,IC50 [1],IC50 ([2]; BRD4 FL),"inhibition at 10 µM ([2]; BRD4 FL, compound at 10 μM)",inhibition at 10 µM [2]
COc1cc(N2CCCc3cc(N4CCN(C(C)=O)CC4)c(C#N)cc32)c2cc(C)c(=O)n(C)c2c1 [Example 182],< 50 nM,2010 to 5000 nM,,
"CONC(=O)COc1cc(N2CCN(C)c3cc(-c4cnn(C)c4)ccc32)c2cc(C)c(=O)n(C)c2c1 [Example 73, 2-((1,3-Dimethyl-5-(4-methyl-6-(1-methyl-1H-pyrazol-4-yl)-3,4-dihydroquinoxalin-1(2H)-yl)-2-oxo-1,2-dihydroquinolin-7-yl)oxy)-N-methoxyacetamide]",< 50 nM,2010 to 5000 nM,,
CNS(=O)(=O)c1ccc2c(c1)N(c1cc(OC)cc3c1cc(C)c(=O)n3C)CCN2C [Example 95],< 50 nM,2010 to 5000 nM,,
"Cc1cc2c(N3CCN(C(F)F)c4cc(-c5cnn(C)c5)ncc43)cc(N3CCOCC3)cc2n(C)c1=O [Example 163, 5-(1-(Difluoromethyl)-7-(1-methyl-1H-pyrazol-4-yl)-2,3-dihydropyrido[3,4-b]pyrazin-4(1H)-yl)-1,3-dimethyl-7-morpholinoquinolin-2(1H)-one]",> 10 nM,,,16%
Cc1cc2c(N3CCN(C)c4cc(-c5cnn(C)c5)ncc43)cc(N3C[C@@H](C)O[C@@H](C)C3)cc2n(C)c1=O [Example 133],51 to 100 nM,2010 to 5000 nM,,
Cc1cc2c(N3CCCc4cc(-c5nnn(C)n5)c(C(F)F)cc43)nc(N3CCOCC3)cc2n(C)c1=O [Example 226],51 to 100 nM,2010 to 5000 nM,,
"CC1Cc2c(cc(N3CC[C@@H](O)C3)nc2N2CCCc3cc(-c4cnn(C)c4)c(C(F)F)cc32)N(C)C1=O (stereo partly drawn) [Example 243, 5-(7-(Difluoromethyl)-6-(1-methyl-1H-pyrazol-4-yl)-3,4-dihydroquinolin-1(2H)-yl)-7-((R)-3-hydroxypyrrolidin-1-yl)-1,3-dimethyl-3,4-dihydro-1,6-naphthyridin-2(1H)-one]",> 10 nM,2010 to 5000 nM,,
CC(=O)N1CCC(c2cc(N3CCN(C)c4cc(-c5cnn(C)c5)ncc43)c3cc(C)c(=O)n(C)c3c2)CC1 [Example 153],< 50 nM,,45%,
COc1cc(N2CCOc3cc(-c4cnn(C)c4)ncc32)c2cc(C)c(=O)n(C)c2c1 [Example 170],< 50 nM,2010 to 5000 nM,,
COc1cc(N2CCN(C)c3ccc(S(C)(=O)=O)cc32)c2cc(C)c(=O)n(C)c2c1 [Example 100],51 to 100 nM,2010 to 5000 nM,,
"COc1cc(N2CCN(C)c3ccc(CC(=O)NO)cc32)c2cc(C)c(=O)n(C)c2c1 [Example 83, N-hydroxy-2-(4-(7-methoxy-1,3-dimethyl-2-oxo-1,2-dihydroquinolin-5-yl)-1-methyl-1,2,3,4-tetrahydroquinoxalin-6-yl)acetamide]",> 10 nM,2010 to 5000 nM,,
COc1cc(N2CCN(C)c3cc(N4CCC(C)(N)CC4)c(C#N)cc32)c2cc(C)c(=O)n(C)c2c1 [Example 29],< 50 nM,2010 to 5000 nM,,
Cc1cc2c(N3CCN(C)c4cc(-c5cnn(C)c5)ncc43)cc(N3CC(C)OC(C)C3)cc2n(C)c1=O (stereo not shown) [Example 132],< 50 nM,2010 to 5000 nM,,
Cc1cc2c(N3CCN(C)c4cc(-c5cnn(C)c5)ncc43)cc(C3CCCCC3)cc2n(C)c1=O [Example 152],51 to 100 nM,,48%,
COc1cc(N2CCN(C)c3cc(N4CCCC(C#N)C4)ncc32)c2cc(C)c(=O)n(C)c2c1 (stereo not shown) [Example 120],,,34%,
Cc1cc2c(N3CCN(C)c4cc(-c5cnn(C)c5)ncc43)cc(N3CCCC(C#N)C3)cc2n(C)c1=O (stereo not shown) [Example 149],,2010 to 5000 nM,,

# Second part, led by results:
IC50 [1],IC50 ([2]; BRD4 FL),"inhibition at 10 µM ([2]; BRD4 FL, compound at 10 μM)",SMILES,inhibition at 10 µM [2]
< 50 nM,2010 to 5000 nM,,Cc1cc2c(N3CCCc4cc(-c5cnn(C)c5)c(C(F)F)cc43)cc(C3CCOCC3)cc2n(C)c1=O [Example 179],
51 to 100 nM,2010 to 5000 nM,,COc1ccc(CN2CCN(c3cc(N4CCOCC4)cc4c3cc(C)c(=O)n4C)c3cnc(-c4cnn(C)c4)cc32)cc1 [Example 135],
< 50 nM,2010 to 5000 nM,,CNC(=O)c1ccc(-c2cc3c(cc2F)N(c2cc(OC)cc4c2cc(C)c(=O)n4C)CCN3C)cn1 [Example 31],
< 50 nM,2010 to 5000 nM,,"COc1cc(N2CCN(C)c3cc(C4CC=NO4)c(S(N)(=O)=O)cc32)c2cc(C)c(=O)n(C)c2c1 (stereo not shown) [Example 91, 7-(4,5-Dihydroisoxazol-5-yl)-4-(7-methoxy-1,3-dimethyl-2-oxo-1,2-dihydroquinolin-5-yl)-1-methyl-1,2,3,4-tetrahydroquinoxaline-6-sulfonamide]",
< 50 nM,2010 to 5000 nM,,COc1cc(N2CCCc3cc(-c4cnn(C)c4)ncc32)c2cc(C)c(=O)n(C)c2c1 [Example 167],
51 to 100 nM,,22%,"Cc1cc2c(N3CCCc4cc(-c5cnn(C)c5)c(C(F)F)cc43)nc(C3=CCOCC3)cc2n(C)c1=O [Example 241, 5-(7-(Difluoromethyl)-6-(1-methyl-1H-pyrazol-4-yl)-3,4-dihydroquinolin-1(2H)-yl)-7-(3,6-dihydro-2H-pyran-4-yl)-1,3-dimethyl-1,6-naphthyridin-2(1H)-one]",
> 10 nM,,21%,Cc1cc2c(N3CCCc4ccc(C(F)F)cc43)nc(N3CCC(O)C3)cc2n(C)c1=O (stereo not shown) [Example 230],
< 50 nM,2010 to 5000 nM,,"CC(=O)N1CCN(c2cc3c(cc(C)c(=O)n3C)c(N3CCCc4cc(-c5cnn(C)c5)c(C(F)F)cc43)n2)CC1 [Example 200, 7-(4-Acetylpiperazin-1-yl)-5-(7-(difluoromethyl)-6-(1-methyl-1H-pyrazol-4-yl)-3,4-dihydroquinolin-1(2H)-yl)-1,3-dimethyl-1,6-naphthyridin-2(1H)-one]",
< 50 nM,,24%,CNC(=O)C1CCN(c2cc3c(cc2C#N)N(c2cc(OC)cc4c2cc(C)c(=O)n4C)CCN3C)CC1 [Example 26],
51 to 100 nM,2010 to 5000 nM,,Cc1cc2c(N3CCN(C)c4cc(-c5cnn(C)c5)ncc43)cc(OCc3ncco3)cc2n(C)c1=O [Example 159],
> 10 nM,2010 to 5000 nM,,"CC1Cc2c(cc(N3CC[C@@H](O)C3)cc2N2CCCc3cc(-c4cnn(C)c4)c(C(F)F)cc32)N(C)C1=O (stereo partly drawn) [Example 193, 7-(Difluoromethyl)-7′-((R)-3-hydroxypyrrolidin-1-yl)-1′,3′-dimethyl-6-(1-methyl-1H-pyrazol-4-yl)-3,3′,4,4′-tetrahydro-2H-[1,5′-biquinolin]-2′(1′H)-one]",
< 50 nM,,56%,COc1cc(N2CCN(C)c3ccc(S(=O)(=O)NC(C)=O)cc32)c2cc(C)c(=O)n(C)c2c1 [Example 98],
,2010 to 5000 nM,,"COc1cc(N2CCCc3ccc(-c4cn[nH]c4)cc32)c2cc(C)c(=O)n(C)c2c1 [Example 198, 7′-Methoxy-1′,3′-dimethyl-7-(1H-pyrazol-4-yl)-3,4-dihydro-2H-[1,5′-biquinolin]-2′(1′H)-one]",
,2010 to 5000 nM,,"COc1cc(N2CCN(C)c3ccc([S+](C)[O-])cc32)c2cc(C)c(=O)n(C)c2c1 (single isomer, unassigned) [Example 249]",
,2010 to 5000 nM,,CNC(=O)c1ccc(-c2cc3c(cc2C(F)F)N(c2nc(N4CCOCC4)cc4c2cc(C)c(=O)n4C)CCC3)cn1 [Example 203],
,2010 to 5000 nM,,COc1cc(N2CCN(C)c3cc(N4CCN(C(C)=O)CC4)ncc32)c2cc(C)c(=O)n(C)c2c1 [Example 119],
